{
  "source": "paper PMC6240096",
  "about": "“A hPSC-based platform to discover gene-environment interactions that impact human β-cell and dopamine neuron survival” (Nature Communications, 2018)",
  "test_system": "INS-GFP+ cells",
  "assay": "RNA-seq of INS-GFP+ cells",
  "format": "cell-based, human",
  "conditions": "1.6 µM propargite-treated INS-GFP+ cells",
  "source_text": "The INS-GFP^+ cells were sorted and RNA from the sorted cells was extracted with Absolutely RNA Nanoprep kit (Agilent Technologies, 400753). The RNA quality was validated with a bioanalyzer (Agilent). The cDNA libraries were synthesized using the TruSeq RNA Sample Preparation kit (Illumina) and sequenced in single-read with the HiSeq2000/1000 sequencer (Illumina) at Weill Cornell Genomics Resources Core Facility. The reads were aligned to the human hg19 reference genome with Tophat2[48]. Gene expression data were analyzed with Cufflinks[49]. To generate heat maps displaying the differential gene expression patterns of different samples, the RPKM values were normalized per gene over all samples. The heat maps were then generated by Heatmap.2 in the R plots package. David functional annotation tool[50] was used for gene ontology analysis and Ingenuity Pathway Analysis tool was used for pathway analysis.",
  "data": [
    {"substance": "2-(4-tert-butylphenoxy)-cyclohexyl prop-2-yne-1-sulfonate [propargite]", "values": [
      {"measurement": "fold-change of upregulated DNA damage genes (DDIT3, GADD45A)", "result": "> 3"}
    ]}
  ]
}
